Values quoted from earlier work as cited in patent US20050261194A1, “Use of thymulin-like peptides for making pain-relieving medicines” (priority 2001, published 2005).
Where no end group is shown, it is not given here. [ ]: non-standard residue; d: D form. pGlu = O=C1CC[C@@H](C(=O)O)N1

System: rat
Conditions: cited from earlier work

For “PyroGlu-Ala-Lys-Ser-Gln-Gly-Gly-Ser-Asn ([pGlu]AKSQGGSN) [thymuline]”, the “effect on hyperalgesia at higher doses” value (micrograms in the rat, 50-100 μg/kg) is given as “reduces hyperalgesia” and the “effect on hyperalgesia at low dose” value (nanograms in the rat, 0.2 to 20 μg/kg) is given as “induces hyperalgesia”.
